# From patent US20240261258A1, “Presurgical Perineural Administration of Resiniferatoxin For Reduction of Post-Operative Pain” (Sorrento Therapeutics, Inc., priority 2021, published 2024)
# Tests used:
# [1] = tested on: dog undergoing TPLO, femoral and sciatic nerves; experiment: TPLO in a single dog after perineural RTX (Example A); format: in vivo
# Protocol: A TPLO (Tibial Plateau Osteotomy) was performed on a single dog. Before surgery, 25 μg RTX was administered perineurally to the femoral and sciatic nerves. The procedure included cutting the bone in the leg, changing the angle of the knee articulation, screwing in a plate, and resewing muscle that was cut to access the knee.
# After waking up, all of the dog's motor functions were preserved. […] The dog was able to put the affected leg down from time to time when ambulating but, as would be expected, the leg was not fully weight-bearing.
# [2] = tested on: healthy dogs undergoing TPLO surgery; experiment: Post-surgical evaluations (weight bearing, withdrawal reflex, proprioception, VAS, GCPS, injection and surgical site); format: in vivo, dog
# Text: Before the subjects underwent surgery, baseline data including a physical examination, hindlimb motor evaluation, hindlimb sensory evaluation, site of injection evaluation, and surgical site evaluation were collected. During the 8-week post-operative follow-up period on day 1, 2, 3, 14, 28, and 56 all the above parameters were reevaluated by a researcher who was blinded to the treatment.
# After observing the animal in its cage and after evaluating the subject walking, the overall pain was scored using a visual analog scale (VAS) and the short form of the Glasgow composite pain scale (GCPS). The VAS consisted of a straight line 10 cm long with the left end, 0 cm, indicating no pain and the right end, 10 cm, indicating unbearable pain. The user placed a mark on the line that best represented the intensity of the subject's pain. Animals with a VAS greater than 4 cm and a GCPS greater that 6 were considered painful and received intramuscular hydromorphone at 0.1 mg/kg.
# The injection site of RTX or local anesthetic was evaluated by visual examination (normal, red, swollen) and palpation (no pain, mild, severe). The surgical site was evaluated by visual examination (normal, red, swollen) and with the aid of an algometer. With the dog in lateral recumbency, the tip of the algometer was placed on the surgical site and pressure was manually applied until the animal moved the leg. During the baseline data collection, several measurements were taken until 3 measurements were within ±1 Newton (N). The number recorded corresponded to the average of these 3 values. After surgery, the force was applied only once. Data were collected from both the left (treated) and the right (non-treated) hindlimbs.
# The withdrawal reflex and proprioception were assessed and scored as normal, decreased, or absent. The motor function was evaluated by encouraging the dog to stand and walk. Weight bearing standing and walking was scored as: normal, decreased (dog uses the leg but prefers the non-operated leg), or absent (dog avoids using the operated leg).
# [3] = tested on: CGRP immunopositive axons of sciatic and femoral nerves; experiment: Quantification of CGRP immunopositive nerve fibers; format: in vivo, dog
# Protocol: FIGS. 1A-J show density of CGRP immunopositive axons in representative confocal images of ipsilateral (left; A-D) and contralateral (right; E-H) sciatic nerve from dogs post-TPLO and after different treatment and doses of RTX. Each bar represents the mean±SEM. Data were analyzed by one-way ANOVA followed by Tukey post hoc test; *p<0.05. FIGS. 1I-J are bar graphs of the density of CGRP immunopositive axons, (density of nerve fibers in mm/mm3) in ipsilateral (I) and contralateral (J) sciatic nerves as measured in n subjects in each group.
# FIGS. 3A-J show CGRP immunopositive axon density in representative confocal images of ipsilateral (left; A-D) and contralateral (right; E-H) femoral nerve from dogs post-TPLO surgery and after different treatment and doses of RTX. Each bar represents the mean±SEM. Data were analyzed by one-way ANOVA followed by Tukey post hoc test; *p<0.05. FIGS. 3I-J are bar graphs of the density of CGRP immunopositive axons (density of nerve fibers in mm/mm3) in ipsilateral (I), and contralateral (J) femoral nerves as measured in n subjects in each group.
# The effects of different routes of administration and/or different doses of RTX on the density of CGRP immunopositive axons in the ipsilateral (left) and contralateral (right) sciatic nerves are shown in FIG. 1. […] However, statistical significance was observed only with the dose of 12.5 μg (25 μg total; p=0.0184) per nerve of RTX. FIGS. 1E-H show the effect of different treatment and doses of RTX on the density of CGRP nerve axons innervating the contralateral (right) sciatic nerve from animals post-TPLO.
# [4] = tested on: SP nerve axons of sciatic and femoral nerves; experiment: Quantification of SP immunopositive nerve fibers; format: in vivo, dog; conditions: for Density of SP nerve axons in the ipsilateral femoral nerve: not statistically significant
# Protocol: FIGS. 2A-J show density of SP nerve axons in representative confocal images of ipsilateral (left; A-D) and contralateral (right; E-H) sciatic nerve from dogs post-TPLO and after different treatment and doses of RTX. Each bar represents the mean±SEM. Data were analyzed by one-way ANOVA followed by Tukey post hoc test; *p<0.05. FIGS. 2I-J are bar graphs of the density of SP nerve axons (density of nerve fibers in mm/mm3) in ipsilateral (I), and contralateral (J) sciatic nerves as measured in n subjects in each group.
# FIGS. 4A-J show the density of SP-immunoreactive axons in representative confocal images showing the presence of […] axons from ipsilateral (A-D) and contralateral (E-H) canine femoral nerves from dogs post-TPLO and after treatment of RTX. Each bar represents the mean±SEM. FIGS. 4I-J are bar graphs of the density of SP nerve axons (density of nerve fibers in mm/mm3) in ipsilateral (I), and contralateral (J) femoral nerves as measured in n subjects in each group.
# FIG. 4 illustrates the effect of RTX on SP density in nerve fibers innervating the ipsilateral (FIG. 4A-D) and contralateral (FIG. 4E-H) femoral nerves from dogs post-TPLO.
# [5] = 25 μg RTX perineurally before surgery
# [6] = Group 1 High, 25 μg total F/Sc nerve block
# [7] = Group 2 Low, 6.25 μg total F/Sc nerve block
# [8] = all subjects and timepoints, cutoff for painful
smiles,measurement,setting,value
"C=C(C)[C@]12C[C@@H](C)[C@@]34O[C@](Cc5ccccc5)(O[C@@H]1[C@@H]3C=C(COC(=O)Cc1ccc(O)c(OC)c1)C[C@]1(O)C(=O)C(C)=C[C@@H]41)O2 [RTX, resiniferatoxin]",Additional pain medications when the dog woke up,[1]; [5],No additional pain medications
same,Motor functions after waking up,[1]; [5],preserved
same,Need to deepen the general anesthesia during cutting of the bone,[1]; [5],no need to deepen the general anesthesia
same,Need to increase the opioid dose for the last part of the surgery,[1]; [5],no need to increase the opioid dose
same,"Pain at manipulation, inflammation, and swelling (standardized veterinary post-surgical pain scale)",[1]; [5],lower than expected
same,Time until the dog was up and walking,[1]; [5],Within a couple of hours
same,Reaction of the dog during cutting of the bone,[1]; 25 μg RTX perineurally to femoral and sciatic nerves before surgery,no reaction
same,Use of leg within 2 hours of surgery: Intermittent toe touching (dogs/group),[2]; [6],touching: 2/4
same,Use of leg within 2 hours of surgery: Normal (dogs/group),[2]; [6],Normal: 2/4
same,Use of leg within 2 hours of surgery: Absent (dogs/group),[2]; [7],Absent: 1/4
same,Use of leg within 2 hours of surgery: Intermittent toe touching (dogs/group),[2]; [7],touching: 3/4;
same,Use of leg within 2 hours of surgery: Absent (dogs/group),"[2]; Group 3 Local, 50 μg on bone incision + 5 mg bupivacaine block",Absent: 4/4
same,Injection site finding in one subject,"[2]; a subject in group 1, both resolved within 24 hours",minimal reaction upon palpation at day 1 and a small red area at day 3
same,Injection site finding in one subject,[2]; a subject in group 3,small non-painful red area at day 14
same,Injection site appearance,[2]; all animals,normal
same,Withdrawal reflex,[2]; all dogs at all time points,normal
same,Time for redness and swollen areas around the surgical incision to resolve,"[2]; all dogs, regardless of group, after surgery",2 to 3 days
same,GCPS (short form Glasgow composite pain scale) score,[2]; [8],< 6
same,VAS pain score,[2]; [8],< 4 cm
same,Weight bearing scores,"[2]; day 14, 28, and 56, all dogs except for one in group 2 (interdigital cyst)",normal scores
same,Efficacy on post-operative pain,[2]; perineural injection at 6.25 μg and 25 μg RTX total in dogs undergoing TPLO surgery,short-term efficacy in treating post-operative pain
same,Density of CGRP nerve axons in the contralateral sciatic nerve vs control treatment,"[3]; RTX treated groups, p=0.9565, p=0.7911, p=0.7229",no differences
same,Density of CGRP nerve axons in the contralateral femoral nerve vs control treatment,"[3]; any RTX treatment, p=0.9914, p>0.9999, p=0.1760",did not statistically reduce
same,Density of CGRP nerve axons in the ipsilateral sciatic nerve vs control treatment,"[3]; local administration (50 μg), not statistically significant",reduced the density of CGRP nerve axons
same,Density of CGRP nerve axons in the ipsilateral sciatic nerve vs control treatment,"[3]; peri-neural 3.12 μg per nerve (6.25 μg total), not statistically significant",reduced the density of CGRP nerve axons
same,Density of CGRP nerve axons in the ipsilateral femoral nerve,"[3]; peri-neural 12.5 μg per nerve (25 μg total), p=0.0125",statistically reduced
same,Density of CGRP nerve axons in the ipsilateral sciatic nerve vs control treatment,"[3]; peri-neural 12.5 μg per nerve (25 μg total), statistically significant, p=0.0184",reduced the density of CGRP nerve axons
same,Density of SP nerve axons in the contralateral sciatic nerve vs control treatment,"[4]; RTX treated groups, p=0.9122, p=0.9995, p=0.9971",did not affect
same,Density of SP nerve axons in the contralateral femoral nerve,"[4]; RTX treatment, p=0.9907, p=0.8812, p=0.9066",did not have an effect
same,Density of SP axons of the ipsilateral sciatic nerve vs control treatment,"[4]; local administration (50 μg), p=0.0155",statistically significant reduction
same,Density of SP axons of the ipsilateral sciatic nerve vs control treatment,"[4]; peri-neural 3.12 μg per nerve (6.25 μg total), p=0.0335",statistically significant reduction
same,Density of SP nerve axons in the ipsilateral femoral nerve,"[4]; peri-neural 3.12 μg per nerve, p=0.8519",marked trend in reducing density
same,Density of SP axons of the ipsilateral sciatic nerve vs control treatment,"[4]; peri-neural 12.5 μg per nerve (25 μg total), p=0.0112",statistically significant reduction
same,Density of SP nerve axons in the ipsilateral femoral nerve,"[4]; peri-neural 12.5 μg per nerve, p=0.1216",marked trend in reducing density
